From patent US5912258A, “Thiadiazoleamide derivative and anti-ulcer drug” (Shiseido Co., Ltd., priority 1998, dated 1999)

Columns and labels:
[1] = test system: isolated gastric fundic gland; assay: CAP: Acid Secretion Inhibition Test in vitro ([^14 C]-aminopyrine uptake); type: cell-based, male Japanese White rabbit; conditions: Oryctolagus cuniculus, rabbit isolated gastric fundic gland, 10^-5 M, histamine 10^-5 M; read-out: CAP: Acid secretion inhibitory rate
Experimental: CAP: Acid Secretion Inhibition Test in vitro (i) Meaning The acid secretion inhibitory activity in a cell level is studied. It can also be used for studying the mechanism of the effect. (ii) Method (ii)-(a) Preparation of isolated gastric gland suspension First, an isolated gastric fundic gland sample was prepared. Namely, a male Japanese White rabbit (2.5 to 3 kg) was anesthetized to death with Nembutal™ and then the abdomen was incised. Immediately thereafter, the stomach was removed and, after its pyloric and cardiac antrum were severed, incised along its greater curvature into two sheets. The gastric contents adhering to the mucosal surface was washed out with ice-cooled PBS (-) and then carefully washed therein. The gastric wall was spread on a cork board with its mucosal surface facing up and the feed and mucus thereon were completely removed with sterile gauze. The mucosa was separated therefrom by a spatula and then collected in ice-cooled PBS (-). After being washed twice with PBS (-), the mucosa was minced into 2-3 mm^3 pieces by scissors. These pieces were further washed twice with a nutrient solution. The nutrient solution comprises 132.4 mM of NaCl, 5.4 mM of KCl, 5 mM of Na2 HPO4 ·12H2 O, 1 mM of NaH2 PO4 ·2H2 O, 1.2 mM of MgSO4, 1 mM of CaCl2, 25 mM of HEPES, 2 mg/ml of glucose, and 1 mg/ml of BSA. Into 70 ml of the nutrient solution containing 1 mg/ml of collagenase, minced mucosal pieces were dispersed and intensely stirred in a conical flask with a stirrer at 37° C. for 40 to 60 minutes. […] The nutrient solution was added to the reaction solution so as to attain the total amount of about 200 ml. After being filtered through a mesh, the suspension was divisionally introduced into 50 ml centrifuge tubes and left for 15 minutes such that gastric fundic gland was deposited. The supernatant was repeatedly removed by an aspirator, dispersed in the nutrient solution, and then left such that the gastric fundic gland was washed three times. At this time, without using a pipette, the suspension was alternately introduced into two centrifuge tubes so as to effect dispersion. The number of cells was counted under microscope and adjusted to 1.6×10^6 cells/ml. (ii)-(b) [^14 C]-aminopyrine uptake test Then [^14 C]-aminopyrine uptake test was performed. After an Eppendorf tube was weighed, 10 μl (final concentration: 10^-5 M) of histamine dissolved in the above-mentioned nutrient solution, 10 μl (final concentration: 10 ^-5 M) of the test compound dissolved in DMSO, and 10 μl (final concentration: 0.05 μCi/ml) of [^14 C]-aminopyrine diluted with the nutrient solution were introduced therein and then 970 μl of the isolated gastric fundic gland suspension prepared above were added thereto. Subsequently, this mixture was shaken at 37° C. for 40 minutes at 125 cycles/minute. After being centrifuged for 30 minutes 200 μl of its supernatant was collected into a mini-vial, while the rest was removed by an aspirator. The gland pellet was completely dried as the tube with its lid being opened was kept for one night in a drying oven at 80° C. and then the weight was determined at room temperature. Then 100 μl of 1N KOH was added thereto an the tube with its lid being closed was treated at 60° C. for 1 to 2 hours so as to dissolve the pellet. Then, the contents thereof were transferred to a mini-vial. Into the mini-vial containing the supernatant or gland pellet, 4 ml of Atomlite™ was added and then the radioactivity was measured by a liquid scintillation counter. Here, after the radioactivity of the gland pellet was corrected by using a sample in which 20 mM of NaSCN was added so as to cancel the hydrogen ion concentration gradient, the integration ratio of aminopyrine specifically trapped by the gland pellet was calculated. This experiment was performed in duplicate. (ii)-(c) Calculation of the accumulation rate of aminopyrine Here, its principle will be briefly explained. […]

[2] = MTT: Cell Damaging and Protecting Effect Test; type: cell-based, male Japanese White rabbit; conditions: rabbit, gastric mucosa cells, 10^-4 M, smaller value is better, read-out: MTT: cell damaging rate
Description: MTT: Cell Damaging and Protecting Effect Test
It is confirmed that there is no toxicity in cell level. Those having toxicity in cell level are inappropriate as an anti-ulcer drug.
A male Japanese White rabbit (2.5 to 3 kg) was anesthetized to death by Nembutal™ and, immediately thereafter, its stomach was removed. The greater curvature of the stomach was incised so as to remove the stomach contents therefrom. After the mucosal surface was washed with HBSS (Hank's Balanced Salt Solution), the stomach in ice-cooled HBSS was transferred to a laboratory. Then, after the pyloric antrum was removed, the gastric corpus mucosa was separated by a spatula and then minced into 2 to 3 mm pieces in BME (Basal Medium Eagle). Thereafter, these pieces were shaken at 120 to 130 cycles/minute for 15 minutes at 37° C. in BME 60 ml containing 280 U/ml of dispase and 30 to 50 U/mil of collagenase. Here, the concentration of collagenase was appropriately changed for each lot in view of the state of cells. The pieces were washed twice with EBSS (Earle's Balanced Salt Solution) containing 1 mM of EDTA and then shaken in MEM (Minimum Essential Medium) containing 1 mM of EDTA at 37° C. for 5 minutes. Subsequently, they were shaken in the dispase and collagenase having the same concentrations as those mentioned above for 15 minutes so as to remove the supernatant and then further shaken at 37° C. for 50 to 60 minutes at 120 to 130 cycles/minute. Then, after being washed twice with HBSS, Ham F12 containing 2% of Ultrocer G™ was used to attain the concentration of 1×10^6 cells/ml. Thus formed suspension was dispensed in each well of a 96-well plate by 200 μl. The plate was incubated in the atmosphere composed of 5% CO2 and 95% air at 37° C. for three days so as to attain a confluent state and then subjected to MTT assay.
The sample compound was dissolved in DMSO so as to attain a concentration of 10^-2 M and then diluted with HBSS containing 2% of Ultrocer G™ so as to attain a final concentration of 10^-4 M. To each group, which 8 wells were used for, 10 μl of MTT reagent was added immediately after 100 μl of the medium in each well was exchanged for same volume of the resulting solution of the sample compound. After being incubated in an atmosphere composed of 5% CO2 and 95% air at 37° C. for 4 hours, thus formed solution was centrifuged and then its supernatant was discarded. Subsequently, 100 μl of 100% ethanol was added to the residue so as to dissolve MTT formazan. Then, the absorbance (OD: 570 to 630) was measured by a microplate reader. This method utilizes a phenomenon in which MTT is changed to MTT formazan only by mitochondria of living cells so as to change color.
The cell damaging or cell protecting effect of the sample compound at the final concentration of 10^-4 M was expressed as cell damaging rate (%) as follows:
cell damaging rate (%)={1-(absorbance in sample group/absorbance in control group)}×100
Accordingly, the smaller value is better in the cell damaging rate.

## CCN(CC)CCSc1nnc(NC(=O)c2ccc(C(C)C)cc2)s1 [Example 1, 2-(4-isopropylbenzoyl)amino-5-diethylaminoethylthio-1,3,4-thiadiazole]
[1]
  inhibition at 10 µM: 101%
[2]
  cytotoxicity at 4 h, 100 µM: 22%

## CC(C)c1ccc(C(=O)Nc2nnc(SCCN(C(C)C)C(C)C)s2)cc1 [Example 2, 2-(4-isopropylbenzoyl)amino-5-diisopropylaminoethylthio-1,3,4-thiadiazole]
[1]
  inhibition at 10 µM: 100%

## CCN(CC)CCSc1nnc(NC(=O)c2ccc(C(C)(C)C)cc2)s1 [Example 4, 2-(4-tert-butylbenzoyl)amino-5-diethylaminoethylthio-1,3,4-thiadiazole]
[1]
  inhibition at 10 µM: 100%
[2]
  cytotoxicity at 4 h, 100 µM: 22%

## CCN(CC)CCSc1nnc(NC(=O)c2ccc(OC/C=C(\C)CCC=C(C)C)cc2)s1 [Example 10, 2-(4-geranyloxybenzoyl)amino-5-diethylaminoethylthio-1,3,4-thiadiazole]
[1]
  inhibition at 10 µM: 100%
[2]
  cytotoxicity at 4 h, 100 µM: 17%

## CC(C)=CCC/C(C)=C/COc1ccc(C(=O)Nc2nnc(SCCN3CCCCC3)s2)cc1 [Example 12, 2-(4-geranyloxybenzoyl)amino-5-piperidinoethylthio-1,3,4-thiadiazole]
[1]
  inhibition at 10 µM: 99%
[2]
  cytotoxicity at 4 h, 100 µM: 12%

## CC(C)=CCC/C(C)=C/COc1ccc(C(=O)Nc2nnc(SCc3ccccn3)s2)cc1 [Example 14, 2-(4-geranyloxybenzoyl)amino-5-(2-pyridylmethyl)thio-1,3,4-thiadiazole]
[1]
  inhibition at 10 µM: 45%
[2]
  cytotoxicity at 4 h, 100 µM: -13%

## CCSc1nnc(NC(=O)c2ccc(OC/C=C(\C)CCC=C(C)C)cc2)s1 [Example 15, 2-(4-geranyloxybenzoyl)amino-5-ethylthio-1,3,4-thiadiazole]
[1]
  inhibition at 10 µM: 17%
[2]
  cytotoxicity at 4 h, 100 µM: 1%
